These compounds were tested against mutant BRAF V600E (Homo sapiens, UniProt P15056, V600E) (assay: BRAF V600E HiBiT Degradation Assay in A375.10 cells). Conditions: 2 hours, A375.10 cells; inflection point of the dose-response curve.
Sequence of mutant BRAF V600E (P15056 whole entry V600E): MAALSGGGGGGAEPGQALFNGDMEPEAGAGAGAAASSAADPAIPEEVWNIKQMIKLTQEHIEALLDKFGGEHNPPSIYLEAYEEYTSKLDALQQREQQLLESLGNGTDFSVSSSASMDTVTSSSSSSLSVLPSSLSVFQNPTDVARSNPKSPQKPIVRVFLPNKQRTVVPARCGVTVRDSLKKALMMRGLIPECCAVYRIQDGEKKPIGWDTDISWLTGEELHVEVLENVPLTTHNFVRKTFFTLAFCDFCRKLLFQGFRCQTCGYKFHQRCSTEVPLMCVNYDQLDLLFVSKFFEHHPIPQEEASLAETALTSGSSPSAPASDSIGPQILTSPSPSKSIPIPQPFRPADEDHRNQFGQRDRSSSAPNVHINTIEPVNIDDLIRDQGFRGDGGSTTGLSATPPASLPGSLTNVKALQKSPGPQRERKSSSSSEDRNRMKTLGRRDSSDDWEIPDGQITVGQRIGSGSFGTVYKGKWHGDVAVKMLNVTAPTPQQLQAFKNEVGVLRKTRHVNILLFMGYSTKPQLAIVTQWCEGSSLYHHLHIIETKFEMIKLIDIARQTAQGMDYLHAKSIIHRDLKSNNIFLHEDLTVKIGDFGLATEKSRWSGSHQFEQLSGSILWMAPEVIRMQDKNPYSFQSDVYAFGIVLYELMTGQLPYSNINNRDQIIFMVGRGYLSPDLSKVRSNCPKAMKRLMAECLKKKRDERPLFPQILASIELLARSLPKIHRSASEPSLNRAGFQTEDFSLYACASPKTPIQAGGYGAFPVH
Method: Compounds of this invention were tested for degradation of mutant BRAF V600E using the HiBiT assay, a luminescence-based assay for quantification of cellular protein levels using the Nano-Glo@HiBiT Lytic Detection System (Catalog No. N3050, Promega, Madison, WI USA). This assay utilizes the HiBiT tag on a protein of interest, which creates a luminescent signal in the presence of a complementing peptide and its substrate, the quantification of which 10 is proportional to the amount of HiBiT-tagged protein in the cell.
A375 cells were engineered to express HiBiT tagged BRAF V600E by CRISPR knock-in of the HiBiT tag to the endogenous BRAF V600E locus, followed by selection of a clonal population containing 15 the appropriate knock-in (referred to here as cell line A375.10). […] Cell culture flasks and 384-well microplates 20 were acquired from VWR (Radnor, PA, USA).
Plates were then spun briefly, and cells were incubated with compound at 37° C. for 2 hoursor 24 hours.
Following the appropriate treatment time, Nano-Glo® HiBiT Lytic Assay reagents were added to the cells per the manufacturer's instructions by adding 30ul of reagent per well, and 10 the luminescence signal was acquired by plate reader. Cells treated with DMSO only (no test compound treatment) were used as the negative control (N). Media only (no cells added) with Nano-Glo reagent addition was used as the background or positive control (P). The percent response of compound treated samples were calculated by subtracting out the background signal (P) and normalizing to the DMSO control (N) as follows. % Response=100 x (Treated Signal - Average (P))/(Average (N) - Average (P)).
Data were analyzed with a 4-parameter logistic fit to generate sigmoidal dose-response curves. […] The Emax, or maximum effect of each compound, represents the amount of residual protein remaining in the cell following compound treatment.
The experiment was conducted at least once for each compound. If the experiment was conducted multiple times, the data shown in the table is the average of the two or more experiments.
In the case of CCN(C)S(=O)(=O)Nc1ccc(F)c(Oc2ccc3ncn([C@H]4COC5(CCN(C(=O)CN6CCN(c7ccc(C8CCC(=O)NC8=O)cc7OS(=O)(=O)F)CC6)CC5)C4)c(=O)c3c2)c1C#N (stereo partly drawn) [drawing 1191], the “HiBIT-Degradation A375.10 BRAF 2 hours IP nM” value is reported as “*** (<= 1 μM is)”. CCN(C)S(=O)(=O)Nc1ccc(F)c(Oc2ccc3ncn([C@@H]4COC5(CCN(C(=O)CN6CCC(c7ccc(N8CCC(=O)NC8=O)cc7OS(=O)(=O)F)CC6)CC5)C4)c(=O)c3c2)c1C#N [drawing 1192] was tested, and the “HiBIT-Degradation A375.10 BRAF 2 hours IP nM” value was “* (>=10 μM is *)”. With CCN(C)S(=O)(=O)Nc1ccc(F)c(Oc2ccc3ncn([C@H]4COC5(CCN(C(=O)CN6CCC(c7ccc(N8CCC(=O)NC8=O)cc7OS(=O)(=O)F)CC6)CC5)C4)c(=O)c3c2)c1C#N [drawing 1193] the “HiBIT-Degradation A375.10 BRAF 2 hours IP nM” value was “* (>=10 μM is *)”. In the case of CCN(C)S(=O)(=O)Nc1ccc(F)c(Oc2ccc3ncn([C@H]4COC5(CCN(C(=O)CN6CCN(c7ccc(N8CCC(=O)NC8=O)cc7OS(=O)(=O)F)CC6)CC5)C4)c(=O)c3c2)c1C#N [drawing 1194], the “HiBIT-Degradation A375.10 BRAF 2 hours IP nM” value is reported as “* (>=10 μM is *)”. For CCN(C)S(=O)(=O)Nc1ccc(F)c(Oc2ccc3ncn([C@@H]4COC5(CCN(C(=O)CN6CCN(c7ccc(N8CCC(=O)NC8=O)cc7OS(=O)(=O)F)CC6)CC5)C4)c(=O)c3c2)c1C#N [drawing 1195], the “HiBIT-Degradation A375.10 BRAF 2 hours IP nM” value was “* (>=10 μM is *)”. In the case of CCN(C)S(=O)(=O)Nc1ccc(F)c(Oc2ccc3ncn([C@H]4COC5(CCN(C(=O)CN6CCC(c7ccc(OC8CCC(=O)NC8=O)cc7OS(=O)(=O)F)CC6)CC5)C4)c(=O)c3c2)c1C#N (stereo partly drawn) [drawing 1196], the “HiBIT-Degradation A375.10 BRAF 2 hours IP nM” value is reported as “*** (<= 1 μM is)”. With CCN(C)S(=O)(=O)Nc1ccc(F)c(Oc2ccc3ncn([C@H]4COC5(CCN(C(=O)CN6CCC(c7ccc(NC8CCC(=O)NC8=O)cc7S(=O)(=O)F)CC6)CC5)C4)c(=O)c3c2)c1C#N (stereo partly drawn) [drawing 1197] the “HiBIT-Degradation A375.10 BRAF 2 hours IP nM” value was “*** (<= 1 μM is)”.

Same assay, conditions: read-out: HIBIT-Degradation A375.10 BRAF 2 hours DC50 nM; 2 hours, A375.10 cells
With CCN(C)S(=O)(=O)Nc1ccc(F)c(Oc2ccc3ncn([C@H]4COC5(CCN(C(=O)CN6CCN(c7ccc(C8CCC(=O)NC8=O)cc7OS(=O)(=O)F)CC6)CC5)C4)c(=O)c3c2)c1C#N (stereo partly drawn) [drawing 1191] the DC50 was 1000 to 10000 nM. Compound CCN(C)S(=O)(=O)Nc1ccc(F)c(Oc2ccc3ncn([C@@H]4COC5(CCN(C(=O)CN6CCC(c7ccc(N8CCC(=O)NC8=O)cc7OS(=O)(=O)F)CC6)CC5)C4)c(=O)c3c2)c1C#N [drawing 1192] has a DC50 of over 10000 nM. With CCN(C)S(=O)(=O)Nc1ccc(F)c(Oc2ccc3ncn([C@H]4COC5(CCN(C(=O)CN6CCC(c7ccc(N8CCC(=O)NC8=O)cc7OS(=O)(=O)F)CC6)CC5)C4)c(=O)c3c2)c1C#N [drawing 1193] the DC50 was over 10000 nM. Work on CCN(C)S(=O)(=O)Nc1ccc(F)c(Oc2ccc3ncn([C@H]4COC5(CCN(C(=O)CN6CCN(c7ccc(N8CCC(=O)NC8=O)cc7OS(=O)(=O)F)CC6)CC5)C4)c(=O)c3c2)c1C#N [drawing 1194] yielded a DC50 of over 10000 nM. In the case of CCN(C)S(=O)(=O)Nc1ccc(F)c(Oc2ccc3ncn([C@@H]4COC5(CCN(C(=O)CN6CCN(c7ccc(N8CCC(=O)NC8=O)cc7OS(=O)(=O)F)CC6)CC5)C4)c(=O)c3c2)c1C#N [drawing 1195], the DC50 is reported as over 10000 nM. CCN(C)S(=O)(=O)Nc1ccc(F)c(Oc2ccc3ncn([C@H]4COC5(CCN(C(=O)CN6CCC(c7ccc(OC8CCC(=O)NC8=O)cc7OS(=O)(=O)F)CC6)CC5)C4)c(=O)c3c2)c1C#N (stereo partly drawn) [drawing 1196] was tested, and the DC50 was 1000 to 10000 nM. CCN(C)S(=O)(=O)Nc1ccc(F)c(Oc2ccc3ncn([C@H]4COC5(CCN(C(=O)CN6CCC(c7ccc(NC8CCC(=O)NC8=O)cc7S(=O)(=O)F)CC6)CC5)C4)c(=O)c3c2)c1C#N (stereo partly drawn) [drawing 1197] showed a DC50 of over 10000 nM.

Same assay, conditions: read-out: HiBIT-Degradation A375.10 BRAF 2 hours Emax
Compound CCN(C)S(=O)(=O)Nc1ccc(F)c(Oc2ccc3ncn([C@H]4COC5(CCN(C(=O)CN6CCN(c7ccc(C8CCC(=O)NC8=O)cc7OS(=O)(=O)F)CC6)CC5)C4)c(=O)c3c2)c1C#N (stereo partly drawn) [drawing 1191] has an Emax of under 60%. CCN(C)S(=O)(=O)Nc1ccc(F)c(Oc2ccc3ncn([C@@H]4COC5(CCN(C(=O)CN6CCC(c7ccc(N8CCC(=O)NC8=O)cc7OS(=O)(=O)F)CC6)CC5)C4)c(=O)c3c2)c1C#N [drawing 1192] showed an Emax of over 95%. Work on CCN(C)S(=O)(=O)Nc1ccc(F)c(Oc2ccc3ncn([C@H]4COC5(CCN(C(=O)CN6CCC(c7ccc(N8CCC(=O)NC8=O)cc7OS(=O)(=O)F)CC6)CC5)C4)c(=O)c3c2)c1C#N [drawing 1193] yielded an Emax of over 95%. Compound CCN(C)S(=O)(=O)Nc1ccc(F)c(Oc2ccc3ncn([C@H]4COC5(CCN(C(=O)CN6CCN(c7ccc(N8CCC(=O)NC8=O)cc7OS(=O)(=O)F)CC6)CC5)C4)c(=O)c3c2)c1C#N [drawing 1194] has an Emax of over 95%. CCN(C)S(=O)(=O)Nc1ccc(F)c(Oc2ccc3ncn([C@@H]4COC5(CCN(C(=O)CN6CCN(c7ccc(N8CCC(=O)NC8=O)cc7OS(=O)(=O)F)CC6)CC5)C4)c(=O)c3c2)c1C#N [drawing 1195] showed an Emax of 60 to 95%. Work on CCN(C)S(=O)(=O)Nc1ccc(F)c(Oc2ccc3ncn([C@H]4COC5(CCN(C(=O)CN6CCC(c7ccc(OC8CCC(=O)NC8=O)cc7OS(=O)(=O)F)CC6)CC5)C4)c(=O)c3c2)c1C#N (stereo partly drawn) [drawing 1196] yielded an Emax of under 60%. CCN(C)S(=O)(=O)Nc1ccc(F)c(Oc2ccc3ncn([C@H]4COC5(CCN(C(=O)CN6CCC(c7ccc(NC8CCC(=O)NC8=O)cc7S(=O)(=O)F)CC6)CC5)C4)c(=O)c3c2)c1C#N (stereo partly drawn) [drawing 1197] showed an Emax of 60 to 95%.
